pIC50: −log10 of the molar value. Like-named read-outs stand apart in the source and are kept apart here.
Assays:
Type in all cases: cell-based
[1] = system: Rabbit isolated mesenteric artery; assay: Rabbit isolated mesenteric artery: relaxation of contractions due to KCl; conditions: Oryctolagus cuniculus
Procedure: (2) Rabbit isolated mesenteric artery.
Mesenteric arteries (3 mm rings) were removed from male New Zealand White rabbits and mounted, at a resting tension of 1.5-2.0 g, in a 10 ml organ bath containing a Ringer solution, at 37° C., of the following composition (mM): NaCl 120.8; KCl 5.9; CaCl2 2.5; MgCl2 1.2; HEPES 5.8; glucose 11.5. The bathing solution was bubbled with a 95% oxygen and 5% carbon dioxide mixture. Each preparation was allowed 1-11/2h to equilibrate before the addition of either 30 or 90 mM KCl to contract the tissue. The ability of test compound to relax the sustained contraction due to KCL was determined by assessing the % reduction (mean± s.e.m.; 4-9 tissues) produced by varying concentrations of test compound.

[2] = system: rat urinary bladder (detrusor) strip; assay: Rat Detrusor Strip Screen: inhibition of electrically induced isometric contractions
Procedure: Rat Detrusor Strip Screen
Male Wistar Charles River rats (Crl: WI BR) weighing 300-350 g were used.
The urinary bladder was removed and a longitudinal strip 3 mm wide was cut from the urethra to the apex of the bladder.
The strip was immediately immersed in a 20 ml bath containing Tyrode with double millimolar concentration of glucose (11.1 instead of 5.55) and with addition of sucrose (13.3 millimolar), kept at 37° C. and aerated with a mixture of O2 95% and CO2 5%.
Tyrode composition was (mM): NaCl 136.8, KCl 2.68, CaCl2 1.80, MgSO4.7H2 O 1.05, NaH2 PO4.H2 O 0.41, NaHCO3 11.9, glucose 11.1 sucrose 13.3. The strip was in direct contact with one of the two platinum electrodes placed on the top and bottom of the organ bath. Placed under an initial tension of 2 g, the strip was then allowed to relax until a baseline of about 1 g. After a 5 min equilibration period isometric contractions were induced by a GRASS S88 2 channel stimulator using the following parameters trains of pulses of 2 sec duration each every 100 sec; square wave pulse of volts (60-70); duration 0.7 ms and 30 Hz.
When the contractions became constant (60-90 min), the strips were exposed to the test compound. The isometric contractions were measured with a Basile DYl force transducer connect to Battaglia Rangoni 4 channel recorder. The results are expressed as per cent of contraction inhibition.

Rat isolated portal vein = assay: Rat isolated portal vein: spontaneous contractions and contractions due to added calcium; conditions: 0.25 h
Procedure: (1) Rat isolated portal vein.
Male Sprague Dawley rats (250-350) were killed by cervical dislocation. Portal veins (2-3 cm in length) were set up under 0.8-1 g tension in a 10 ml organ bath containing Krebs-Henseleit solution, at 37° C., of the following composition (mM): NaCl 118, NaHCO3 25, glucose 5, KH2 PO4 1.18, KCl 4.69, MgSO4 0.59, CaCl2.H2 O 1.87. The tissue was aerated with a 95% oxygen and 5% carbon dioxide mixture. Isometric tension was recorded using a Devices strain gauge and recorder. Each preparation was allowed 1 h to equilibrate before the addition of test compound. The ability of a compound to inhibit the contractions due to added calcium (3 mM CaCl2) was determined in tissues bathed in Krebs-Henseleit solution containing 0.05 mM CaCl2 (in order to reduce spontaneous contractions). Then percentage inhibition (mean± s.e.m.; 6-9 tissues) of the amplitude of the spontaneous contractions, and contractions due to added calcium, was determined after 15 min contact time with test compound.

SMILES | Mean % inhibition ([2]; Molar Conc 1 × 10^-5) | Mean % inhibition ([2]; Molar Conc 3 × 10^-5) | other results
CC1(C)Oc2ccc(C#N)cc2[C@@H](N2CCCC2=O)[C@@H]1O (relative stereo) [Compound 1, 6-cyano-3,4-dihydro-2,2-dimethyl-trans-4-(2-oxo-1-pyrrolidinyl)-2H-benzo[b]pyran-3-ol] | -46.4% | – | pIC50 ([1]; sustained contraction due to 30 mM KCl, read-out: IC50 30 mM KCl): 6.29; pIC50 ([1]; sustained contraction due to 90 mM KCl, read-out: IC50 90 mM KCl): < 5.00; pIC50 (Rat isolated portal vein; amplitude of spontaneous contractions, 15 min contact time, read-out: IC50 Spontaneous (contractions)): 6.92; pIC50 (Rat isolated portal vein; contractions due to added calcium (3 mM CaCl2) in Krebs-Henseleit with 0.05 mM CaCl2, 15 min contact time, read-out: IC50 Ca^2+ (3 mM)): 6.82
CC1(C)Oc2ccc(C#N)cc2[C@@H](N2CCCCC2=O)[C@@H]1O (relative stereo) [Compound 3] | – | – | Mean % inhibition ([2]; Molar Conc 1 × 10^-6): -34.2%
CC(=O)N[C@@H]1c2cc(C#N)ccc2OC(C)(C)[C@H]1O (relative stereo) [Compound 4, trans-4-N-acetylamino-6-cyano-3,4-dihydro-2,2-dimethyl-2H-benzo[b]pyran-3-ol] | – | -32.9% | –
CC1(C)Oc2ccc(C#N)cc2[C@@H](N2CCNCC2=O)[C@@H]1O (relative stereo) [Compound 5, 6-cyano-3,4-dihydro-2,2-dimethyl-trans 4-(2-oxo-1-piperazinyl)-2H-benzo[t]pyran-3-ol] | -37.2% | – | –
CNC(=O)N[C@@H]1c2cc(C#N)ccc2OC(C)(C)[C@H]1O (relative stereo) [Compound 6, trans-6-cyano-3,4-dihydro-2,2-dimethyl-4-(N-methylureido)-2H-1-benzo[b]pyran-3-ol] | – | -44.2% | –
CC1(C)C=C(N2CCCC2=O)c2cc(C#N)ccc2O1 [Compound 2, 6-cyano-2,2-dimethyl-4-(2-oxo-1-pyrrolidinyl)-2H-1-benzopyran] | -59.7% | – | –

Source: patent US4738963A, “Method for the treatment of incontinence in mammals” (Beecham Group p.l.c., priority 1985, dated 1988)
